Laboratory results taken from ChEMBL document CHEMBL1201862, “PubChem BioAssay data set” (2004).
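Protocol summary: plate cells (96-well), add compound at 5 concentrations, incubate 48 h, interpolate endpoints linearly. Abbreviation: GI50, concentration required for 50% inhibition of growth.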 Active and inactive are the calls of the source. Cut-off read from the data, not from the text of the source: active = GI50 up to about 1.1 µM and inactive = higher.

Assays:
Experiment in all cases: growth of human tumour cells (NCI), 48 h
[1] = test system: NCI-H23
[2] = test system: MDA-MB-231
[3] = test system: NCI-H226
[4] = test system: MOLT-4
[5] = test system: HCT-116
[6] = test system: DU-145
[7] = test system: T47D
[8] = test system: HT-29
[9] = test system: HOP-62
[10] = test system: HCC 2998
[11] = test system: SK-MEL-5
[12] = test system: BT-549
[13] = test system: SNB-19
[14] = test system: UO-31
[15] = test system: A549
[16] = test system: EKVX
[17] = test system: NCI-H522
[18] = test system: PC-3
[19] = test system: MDA-N
[20] = test system: SK-OV-3
[21] = test system: HCT-15
[22] = test system: SK-MEL-2
[23] = test system: SF-268
[24] = test system: Malme-3M
[25] = test system: UACC-257
[26] = test system: OVCAR-4
[27] = test system: MDA-MB-435
[28] = test system: SK-MEL-28
[29] = test system: SW-620
[30] = test system: SF-539
[31] = test system: OVCAR-3
[32] = test system: UACC-62
[33] = test system: HL-60
[34] = test system: HOP-92
[35] = test system: Hs-578T
[36] = test system: CAKI-1
[37] = test system: SN12C
[38] = test system: K562
[39] = test system: KM12
[40] = test system: 786-0
[41] = test system: OVCAR-8
[42] = test system: CCRF-CEM
[43] = test system: SNB-75
[44] = test system: IGROV-1
[45] = test system: TK-10
[46] = test system: SF-295
[47] = test system: COLO 205
[48] = test system: U-251
[49] = test system: RXF 393
[50] = test system: RPMI-8226
[51] = test system: SR
[52] = test system: M14
[53] = test system: ACHN
[54] = test system: NCI-H460
[55] = test system: LOX IMVI
[56] = test system: A498
[57] = test system: OVCAR-5
[58] = test system: NCI/ADR-RES
[59] = test system: MCF7

## COC(=O)C1Cc2c(C)cccc2C1=O (stereo not drawn)
[1]
  GI50: > 100 µM (inactive)
[2]
  GI50: > 100 µM (inactive)
[3]
  GI50: > 100 µM (inactive)
[4]
  GI50: > 100 µM (inactive)
[5]
  GI50: > 100 µM (inactive)
[6]
  GI50: > 100 µM (inactive)
[7]
  GI50: > 100 µM (inactive)
[8]
  GI50: > 100 µM (inactive)
[9]
  GI50: > 100 µM (inactive)
[10]
  GI50: > 100 µM (inactive)
[11]
  GI50: > 100 µM (inactive)
[12]
  GI50: > 100 µM (inactive)
[13]
  GI50: > 100 µM (inactive)
[14]
  GI50: > 100 µM (inactive)
[15]
  GI50: > 100 µM (inactive)
[16]
  GI50: > 100 µM (inactive)
[17]
  GI50: > 100 µM (inactive)
[18]
  GI50: > 100 µM (inactive)
[19]
  GI50: > 100 µM (inactive)
[20]
  GI50: > 100 µM (inactive)
[21]
  GI50: > 100 µM
[22]
  GI50: > 100 µM (inactive)
[23]
  GI50: > 100 µM (inactive)
[24]
  GI50: > 100 µM (inactive)
[25]
  GI50: > 100 µM (inactive)
[26]
  GI50: > 100 µM (inactive)
[27]
  GI50: > 100 µM (inactive)
[28]
  GI50: > 100 µM (inactive)
[29]
  GI50: > 100 µM (inactive)
[30]
  GI50: > 100 µM (inactive)
[31]
  GI50: > 100 µM (inactive)
[32]
  GI50: > 100 µM (inactive)
[33]
  GI50: 29.4 µM (inactive)
[34]
  GI50: > 100 µM (inactive)
[35]
  GI50: > 100 µM (inactive)
[36]
  GI50: > 100 µM (inactive)
[37]
  GI50: > 100 µM (inactive)
[38]
  GI50: 66.7 µM (inactive)
[39]
  GI50: > 100 µM (inactive)
[40]
  GI50: > 100 µM (inactive)
[41]
  GI50: > 100 µM (inactive)
[42]
  GI50: 41.3 µM (inactive)
[43]
  GI50: > 100 µM (inactive)
[44]
  GI50: > 100 µM (inactive)
[45]
  GI50: > 100 µM (inactive)
[46]
  GI50: > 100 µM (inactive)
[47]
  GI50: > 100 µM (inactive)
[48]
  GI50: > 100 µM (inactive)
[49]
  GI50: > 100 µM (inactive)
[50]
  GI50: > 100 µM (inactive)
[51]
  GI50: 50.8 µM (inactive)
[52]
  GI50: > 100 µM (inactive)
[53]
  GI50: > 100 µM (inactive)
[54]
  GI50: > 100 µM (inactive)
[55]
  GI50: 88.9 µM (inactive)
[56]
  GI50: > 100 µM (inactive)
[57]
  GI50: > 100 µM (inactive)
[58]
  GI50: > 100 µM (inactive)
[59]
  GI50: > 100 µM (inactive)

## CC(=O)Nc1ccc2c3c(cc(O)c2c1)N(C(=O)CCCCC(=O)Nc1ccc2c4c(cc(O)c2c1)N(C(=O)OC(C)(C)C)CC4CCl)CC3CCl (stereo not drawn)
[1]
  GI50: 1.05 µM (active)
[2]
  GI50: 3.8 µM (inactive)
[3]
  GI50: 2.13 µM (inactive)
[4]
  GI50: 0.302 µM (active)
[5]
  GI50: 2.22 µM (inactive)
[6]
  GI50: 0.826 µM (active)
[7]
  GI50: 0.82 µM (active)
[8]
  GI50: 2.82 µM (inactive)
[9]
  GI50: 3.05 µM (inactive)
[10]
  GI50: 1.66 µM (inactive)
[11]
  GI50: 1.54 µM (inactive)
[12]
  GI50: 1.77 µM (inactive)
[13]
  GI50: 2.09 µM (inactive)
[14]
  GI50: 24.3 µM (inactive)
[15]
  GI50: 7.62 µM (inactive)
[16]
  GI50: 12.8 µM (inactive)
[17]
  GI50: 0.74 µM (active)
[18]
  GI50: 3.25 µM (inactive)
[19]
  GI50: 1.77 µM (inactive)
[20]
  GI50: 4.4 µM (inactive)
[21]
  GI50: 16.7 µM
[22]
  GI50: 1.75 µM (inactive)
[23]
  GI50: 0.804 µM (active)
[24]
  GI50: 1.39 µM (inactive)
[25]
  GI50: 2.26 µM (inactive)
[26]
  GI50: 2.52 µM (inactive)
[27]
  GI50: 1.78 µM (inactive)
[28]
  GI50: 3.3 µM (inactive)
[29]
  GI50: 2.82 µM (inactive)
[30]
  GI50: 2.25 µM (inactive)
[31]
  GI50: 2.26 µM (inactive)
[32]
  GI50: 1.54 µM (inactive)
[33]
  GI50: 0.42 µM (active)
[34]
  GI50: 2.7 µM (inactive)
[35]
  GI50: 3.55 µM (inactive)
[36]
  GI50: 17.4 µM (inactive)
[37]
  GI50: 2.38 µM (inactive)
[38]
  GI50: 2.62 µM (inactive)
[39]
  GI50: 2.79 µM (inactive)
[40]
  GI50: 2.76 µM (inactive)
[41]
  GI50: 3.08 µM (inactive)
[42]
  GI50: 0.193 µM (active)
[43]
  GI50: 1.82 µM (inactive)
[44]
  GI50: 1.92 µM (inactive)
[45]
  GI50: 10.4 µM (inactive)
[46]
  GI50: 4.66 µM (inactive)
[47]
  GI50: 1.82 µM (inactive)
[48]
  GI50: 1.53 µM (inactive)
[49]
  GI50: 1.53 µM (inactive)
[50]
  GI50: 3.13 µM (inactive)
[51]
  GI50: 0.137 µM (active)
[52]
  GI50: 3.27 µM (inactive)
[53]
  GI50: 3.2 µM (inactive)
[54]
  GI50: 1.83 µM (inactive)
[55]
  GI50: 2.19 µM (inactive)
[56]
  GI50: 1.94 µM (inactive)
[57]
  GI50: 3.29 µM (inactive)
[58]
  GI50: 21.7 µM (inactive)
[59]
  GI50: 0.373 µM (active)
